The record followed here is US20080234262A1 (Wyeth, priority 2007, published 2008).

In one assay the target is PI3K (Homo sapiens, UniProt P42336). The assay can be described thus: Fluorescence polarization assay for PI3K.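 Note: PI3K kinase reaction on PIP2 with ATP, 30-60 min, product sensed by GST-GRP with red probe in fluorescence polarization (mP), controls without enzyme and at zero time.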 The format is biochemical. Conditions: PI3Kα; read-out: PI3Kα IC50.
For another assay, the system named is prostate line LNCap. The assay can be described thus: In vitro cell culture growth assay (MTS), LNCap. The note with it: Homo sapiens, LNCaP, 72 h, LNCap cells, three days after drug treatment. The format is cell-based, human.
The test system of the next assay is breast line MDA468. The assay can be described thus: In vitro cell culture growth assay (MTS), MDA468. The format is cell-based, human. The note with it: Homo sapiens, 72 h, MDA468 cells, three days after drug treatment. The essentials:
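Cells were plated and, one day later, exposed to inhibitors for three days; viable cell density was then measured by metabolic conversion of MTS dye, read as absorbance at 490 nm. Growth is expressed as percent of vehicle-treated control cells on the same plate.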

Molecules are shown by their SMILES. pIC50: −log10 of the molar value.

Sequence of PI3K (P42336 whole entry): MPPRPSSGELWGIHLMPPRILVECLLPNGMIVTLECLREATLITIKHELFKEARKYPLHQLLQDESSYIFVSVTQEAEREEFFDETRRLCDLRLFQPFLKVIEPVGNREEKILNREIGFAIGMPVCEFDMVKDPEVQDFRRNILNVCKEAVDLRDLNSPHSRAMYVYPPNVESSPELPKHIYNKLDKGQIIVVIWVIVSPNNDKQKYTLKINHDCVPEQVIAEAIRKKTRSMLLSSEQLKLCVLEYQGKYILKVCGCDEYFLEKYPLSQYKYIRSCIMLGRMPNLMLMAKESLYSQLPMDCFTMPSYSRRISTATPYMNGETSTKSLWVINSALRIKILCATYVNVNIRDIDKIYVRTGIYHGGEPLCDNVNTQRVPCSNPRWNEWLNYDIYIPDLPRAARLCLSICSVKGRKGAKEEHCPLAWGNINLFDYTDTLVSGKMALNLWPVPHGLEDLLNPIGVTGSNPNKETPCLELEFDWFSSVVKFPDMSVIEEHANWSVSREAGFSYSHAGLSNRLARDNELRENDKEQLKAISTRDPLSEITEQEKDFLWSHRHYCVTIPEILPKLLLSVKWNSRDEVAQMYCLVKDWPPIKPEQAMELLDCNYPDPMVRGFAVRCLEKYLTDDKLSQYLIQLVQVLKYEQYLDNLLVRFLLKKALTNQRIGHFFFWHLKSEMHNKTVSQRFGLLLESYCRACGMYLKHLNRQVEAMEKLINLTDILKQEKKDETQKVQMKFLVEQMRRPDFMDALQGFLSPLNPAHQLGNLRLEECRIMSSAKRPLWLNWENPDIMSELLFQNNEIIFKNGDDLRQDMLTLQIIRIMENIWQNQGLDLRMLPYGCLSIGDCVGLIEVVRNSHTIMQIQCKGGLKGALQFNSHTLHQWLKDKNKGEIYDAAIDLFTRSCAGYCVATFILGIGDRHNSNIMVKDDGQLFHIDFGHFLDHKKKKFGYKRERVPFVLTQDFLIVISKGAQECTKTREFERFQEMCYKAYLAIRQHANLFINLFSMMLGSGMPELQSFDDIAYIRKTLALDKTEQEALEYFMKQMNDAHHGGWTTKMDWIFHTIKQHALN
Sequence of PI3K (P27986 whole entry partner): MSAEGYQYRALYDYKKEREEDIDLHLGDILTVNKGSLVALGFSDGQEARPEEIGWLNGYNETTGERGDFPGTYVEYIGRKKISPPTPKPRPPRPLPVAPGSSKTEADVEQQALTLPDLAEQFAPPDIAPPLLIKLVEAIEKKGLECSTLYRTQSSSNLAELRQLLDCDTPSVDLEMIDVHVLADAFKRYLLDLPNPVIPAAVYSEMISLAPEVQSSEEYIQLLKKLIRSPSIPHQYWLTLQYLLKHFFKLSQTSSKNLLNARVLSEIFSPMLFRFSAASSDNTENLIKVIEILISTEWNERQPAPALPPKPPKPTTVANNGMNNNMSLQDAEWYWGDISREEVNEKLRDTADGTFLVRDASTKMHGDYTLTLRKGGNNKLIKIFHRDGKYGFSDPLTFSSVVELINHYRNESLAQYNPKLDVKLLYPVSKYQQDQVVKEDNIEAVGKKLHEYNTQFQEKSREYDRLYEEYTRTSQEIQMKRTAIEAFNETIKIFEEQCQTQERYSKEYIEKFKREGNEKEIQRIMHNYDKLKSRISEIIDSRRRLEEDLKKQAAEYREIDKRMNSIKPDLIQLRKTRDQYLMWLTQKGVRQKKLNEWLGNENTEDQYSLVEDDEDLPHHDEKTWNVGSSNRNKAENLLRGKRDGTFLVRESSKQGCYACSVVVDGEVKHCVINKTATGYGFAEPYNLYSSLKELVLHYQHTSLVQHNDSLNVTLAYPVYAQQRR

On to `CNCCNC(=O)Nc1ccc(-c2nc(N3CCOCC3)c3cnn(C4CCN(C(=O)c5cccnc5)CC4)c3n2)cc1` [Compound 593, 1-[2-(methylamino)ethyl]-3-(4-{4-morpholin-4-yl-1-[1-(pyridin-3-ylcarbonyl)piperidin-4-yl]-1H-pyrazolo[3,4-d]pyrimidin-6-yl}phenyl)urea], for which the pIC50 on PI3K is 7.35; in the assay with prostate line LNCap, 5.30; in the assay with breast line MDA468, 5.05.
On the same counts, the results for `Oc1cccc(-c2nc(N3CCOCC3)c3cnn(CCN4CCCCC4)c3n2)c1` [Compound 126] are 7.22, 5.48 and 4.89.
On the same counts, the results for `c1ccc(CCN2CCC(n3ncc4c(N5CCOCC5)nc(-c5ccc6[nH]ccc6c5)nc43)CC2)cc1` [Compound 489, 6-(1H-indol-5-yl)-4-morpholin-4-yl-1-[1-(2-phenylethyl)piperidin-4-yl]-1H-pyrazolo[3,4-d]pyrimidine] are 5.51, 6.11 and 5.51.
Turning to `CNC(=O)Nc1ccc(-c2nc(N3CCOCC3)c3cnn(C4CCN(C(=O)c5ccc(F)cc5)CC4)c3n2)cc1` [Example 361, 1-(4-{1-[1-(4-fluorobenzoyl)piperidin-4-yl]-4-morpholin-4-yl-1H-pyrazolo[3,4-d]pyrimidin-6-yl}phenyl)-3-methylurea], the values for the pIC50 on PI3K, in the assay on prostate line LNCap and in the assay with breast line MDA468 were 6.97, 7.57 and 7.00, respectively.
On the same counts, the results for `COC(=O)Nc1ccc(-c2nc(N3CCOC(C)C3)c3cnn(C4CCN(C(=O)OC)CC4)c3n2)cc1` (stereo not drawn) [Compound 840, methyl 4-[6-{4-[(methoxycarbonyl)amino]phenyl}-4-(2-methylmorpholin-4-yl)-1H-pyrazolo[3,4-d]pyrimidin-1-yl]piperidine-1-carboxylate] are 5.45, 5.49 and 5.00.
Turning to `CNC(=O)Nc1ccc(-c2nc(N3CCOCC3)c3cnn(C4CCN(C(=O)OCC(C)C)CC4)c3n2)cc1` [Compound 754, isobutyl 4-(6-{4-[(methylcarbamoyl)amino]phenyl}-4-morpholin-4-yl-1H-pyrazolo[3,4-d]pyrimidin-1-yl)piperidine-1-carboxylate], the pIC50 on PI3K is 7.14; in the assay on prostate line LNCap, 6.89; with breast line MDA468, 6.57.
`O=C(Cc1ccccc1)N1CCC(n2ncc3c(N4CCOCC4)nc(-c4ccc5[nH]ccc5c4)nc32)CC1` [Compound 242, 6-(1H-indol-5-yl)-4-morpholin-4-yl-1-[1-(phenylacetyl)piperidin-4-yl]-1H-pyrazolo[3,4-d]pyrimidine]: the pIC50 is 6.16 on PI3K, 6.15 in the assay with prostate line LNCap and 5.52 in the assay on breast line MDA468.
Regarding `O=C(Nc1ccc(-c2nc(N3CCOCC3)c3cnn(C4CCN(C(=O)OCc5ccccc5)CC4)c3n2)cc1)Nc1cccnc1` [Compound 881, benzyl 4-(4-morpholin-4-yl-6-{4-[(pyridin-3-ylcarbamoyl)amino]phenyl}-1H-pyrazolo[3,4-d]pyrimidin-1-yl)piperidine-1-carboxylate], the values for the pIC50 at PI3K, with prostate line LNCap and in the assay with breast line MDA468 were 8.15, 7.22 and 6.52, respectively.
As for `CNC(=O)Nc1ccc(-c2nc(N3CCOCC3)c3cnn(C4CCC5(CC4)OCCO5)c3n2)cc1` [Compound 566, 1-{4-[1-(1,4-dioxaspiro[4.5]dec-8-yl)-4-morpholin-4-yl-1H-pyrazolo[3,4-d]pyrimidin-6-yl]phenyl}-3-methylurea], the pIC50 on PI3K is 7.13; in the assay with prostate line LNCap, > 7.57; in the assay with breast line MDA468 it was 7.07.
On the same counts, the results for `CC(C)(C)OC(=O)N1CCC(n2ncc3c(N4CCOCC4)nc(-c4ccc(NC(=O)NCCO)cc4)nc32)CC1` [Compound 766, tert-butyl 4-[6-(4-{[(2-hydroxyethyl)carbamoyl]amino}phenyl)-4-morpholin-4-yl-1H-pyrazolo[3,4-d]pyrimidin-1-yl]piperidine-1-carboxylate] are 6.44, 6.74 and 6.39.
With `O=C1CCC(n2ncc3c(N4CCOCC4)nc(-c4ccc5[nH]ccc5c4)nc32)CC1` [Compound 143, 4-[6-(1H-indol-5-yl)-4-morpholin-4-yl-1H-pyrazolo[3,4-d]pyrimidin-1-yl]cyclohexanone], the pIC50 at PI3K was 6.15; in the assay with prostate line LNCap, 6.74; in the assay on breast line MDA468 it was 5.77.
On the same counts, the results for `CNC(=O)Nc1ccc(-c2nc(N3CCOCC3)c3cnn(C4CCN(Cc5cnccc5OC)CC4)c3n2)cc1` [Example 391, 1-[4-(1-{1-[(4-methoxypyridin-3-yl)methyl]piperidin-4-yl}-4-morpholin-4-yl-1H-pyrazolo[3,4-d]pyrimidin-6-yl)phenyl]-3-methylurea] are 7.09, 7.15 and 6.70.
On the same counts, the results for `O=C(Nc1ccncc1)Nc1ccc(-c2nc(N3CCOCC3)c3cnn(C4CCN(Cc5cccnc5)CC4)c3n2)cc1F` [Compound 599, 1-(2-fluoro-4-{4-morpholin-4-yl-1-[1-(pyridin-3-ylmethyl)piperidin-4-yl]-1H-pyrazolo[3,4-d]pyrimidin-6-yl}phenyl)-3-pyridin-4-ylurea] are 7.47, > 7.57 and 7.09.
In the case of `CNC(=O)Nc1ccc(-c2nc(N3CCOCC3)c3cnn(C4CCN(C(=O)OCCF)CC4)c3n2)cc1` [Compound 878, 2-fluoroethyl 4-(6-{4-[(methylcarbamoyl)amino]phenyl}-4-morpholin-4-yl-1H-pyrazolo[3,4-d]pyrimidin-1-yl)piperidine-1-carboxylate], the pIC50 was 7.27 on PI3K, 7.40 in the assay on prostate line LNCap and 6.92 in the assay on breast line MDA468.
For `CNC(=O)Nc1ccc(-c2nc(N3CCOCC3)c3cnn(C4CCN(Cc5ccc(Br)nc5)CC4)c3n2)cc1` [Example 389, 1-[4-(1-{1-[(6-bromopyridin-3-yl)methyl]piperidin-4-yl}-4-morpholin-4-yl-1H-pyrazolo[3,4-d]pyrimidin-6-yl)phenyl]-3-methylurea], the pIC50 on PI3K is 7.51; with prostate line LNCap, 7.57; in the assay with breast line MDA468, 7.00.
On the same counts, the results for `O=C(c1ncccc1O)N1CCC(n2ncc3c(N4CCOCC4)nc(-c4ccc5[nH]ccc5c4)nc32)CC1` [Example 198, 2-({4-[6-(1H-indol-5-yl)-4-morpholin-4-yl-1H-pyrazolo[3,4-d]pyrimidin-1-yl]piperidin-1-yl}carbonyl)pyridin-3-ol] are 5.78, 6.15 and 5.40.
On the same counts, the results for `COCCNCCc1ccc(NC(=O)Nc2ccc(-c3nc(N4CCOCC4)c4cnn(C5CCN(C(=O)OC)CC5)c4n3)cc2)cc1` [Compound 922, methyl 4-[6-(4-{[(4-{2-[(2-methoxyethyl)amino]ethyl}phenyl)carbamoyl]amino}phenyl)-4-morpholin-4-yl-1H-pyrazolo[3,4-d]pyrimidin-1-yl]piperidine-1-carboxylate] are 7.52, > 9.10 and 7.05.
On the same counts, the results for `CN(C)CC=CC(=O)N1CCC(n2ncc3c(N4CCOCC4)nc(-c4ccc5[nH]ccc5c4)nc32)CC1` [Compound 234, 4-{4-[6-(1H-indol-5-yl)-4-morpholin-4-yl-1H-pyrazolo[3,4-d]pyrimidin-1-yl]piperidin-1-yl}-N,N-dimethyl-4-oxobut-2-en-1-amine] are 6.32, 6.00 and 5.70.

By pIC50 is commonly meant the IC50 on a negative log10 scale, so that one unit is a factor of ten.
